Common to all, as to assay type: cell-based, human
Assay [1] deals with ILC cells. The assay can be described thus: Flow cytometry of islet-like clusters differentiated from hiPSC with the combination protocol. The protocol: Beta cell differentiation from iPSC aggregates was carried out using several hiPSC lines with a new protocol derived by combining two published protocols (Nostro et al., Stem Cell Reports (2015), 4(4): 591-604; Rezania et al., Nat Biotechnol (2014), 32(11): 1121-1133), further referred to as “combination protocol”. iPSCs were seeded as single cells in suspension at 1×10^6 cells/mL in mTeSR1 (StemCell Technologies Inc.; 05850) with […] Y-27632 and kept in culture in 100 mL spinner flasks on a stirring platform to form aggregates under low shear conditions (see e.g. Fok and Zandstra, Stem Cells 2005; 23:1333-1342). At day 0 of differentiation, iPSC clusters were treated with Basal medium 1 (BM1) with the addition of 100 ng/mL Activin A, 2 μM CHIR 99021 and 10 μM Y-27632 to induce definitive endoderm. On subsequent days, media change was performed as described below, and occurred daily up to day 14, every other day after that. Definitive endoderm (DE) was induced from day 0 to day 3 and gut tube (GT) was patterned from day 3 to day 6. On day 6, pancreatic progenitors (PP) were induced until day 11. Commitment to the endocrine (EN) lineage was then performed between day 11 and day 14, and day 14 EN clusters were differentiated to islet-like clusters (ILCs) until day 24 (FIG. 1).
As a result, the content of chromogranin A^pos cells rose to levels above 95% (FIGS. 2A, 2C).
The addition of gamma secretase inhibitor and removal of T3 led to increased populations of pancreatic islet endocrine cells in islet-like clusters. […] In addition, the somatostatin^pos population was increased in islet-like clusters generated with the addition of gamma secretase inhibitor and removal of T3 (FIG. 7; FIG. 11; FIG. 14; FIG. 15A).
Quantification of the EC cell population in islet-like clusters was performed by FACS for serotonin^pos and C-peptide^neg cells. While islet-like clusters generated using the combination protocol (Control) contain 30% of pancreatic EC cells, the addition of gamma secretase inhibitor in absence of T3 (+GSI/−T3) led to a drastic reduction of this population, down to levels <15% (FIGS. 5A, 5B).

Assay [2] has as its system ILC cells. The assay can be described thus: Flow cytometry of islet-like clusters obtained with the second protocol. To be noted: second protocol with addition of GSI and removal of T3. An excerpt:
As the combination protocol, the second protocol starts with seeding and aggregation of single pluripotent cells in suspension, and proceeds through the same intermediate stages of pancreatic embryonic development (definitive endoderm/DE, primitive gut tube, pancreatic progenitors, endocrine differentiation) to beta cell-containing islet-like clusters (ILCs) containing C-peptide^pos/insulin^pos/NKX6.1^pos beta cells. Differences to the combined protocol include the addition of a combination of BMP4 and bFGF during the first day of DE induction (see also Example 4), and longer durations of media incubations during pancreatic progenitor and endocrine induction, resulting in an overall longer time from start of differentiation to EN stage (EN stage on day 16 instead of day 14). Similar to the combined protocol, the second protocol was modified by additional gamma secretase inhibitor treatment in absence of T3 during the EN to ILC transition. The latter version of the adapted protocol is referred to “second protocol +GSI/−T3”.

In assay [3] the test system is post-thaw islet-like clusters. The assay can be described thus: Post-thaw recovery rate of islet-like clusters (viable cell count). To be noted: combination protocol, frozen at EN stage with Medium A, freezing procedure A; GSI without T3 after thawing. The protocol:
(§1) Using the combination protocol, induced pluripotent stem cells were differentiated into EN clusters. […] Clusters were cryoprotected before freezing by addition of the basal cryoprotective medium, consisting of KnockOut™ Serum Replacement, 10 μM ROCKi and 2 μM fatty acids, with increasing concentrations of DMSO and EG, in combination with incubation steps at decreasing temperatures. The DMSO and EG concentrations during the cryoprotection protocol and the corresponding stock concentrations, along with incubation times and temperatures, are given in table 1.
EN clusters, transferred to cryogenic vials, were frozen directly after the stepwise cryoprotection treatment in a controlled rate freezer using the following protocol (freezing procedure A): • 1. The sample is cooled-down to −7.5° C. (+/−0.7° C.); • 2. […]
Recovery rates were determined after post-thaw culture of 4-6 days, i.e. differentiation into islet-like clusters, by determination of viable cell count. Clusters, dissociated into single cells, were stained and analysed for different markers with flow cytometry. […]
Subsequent to the cryoprotection, the clusters were frozen using freezing procedure A, as described. […] Recovery rates of post-thaw islet-like clusters were determined by determination of viable cell count. Viability was determined with a viability staining with PI and FDA, imaged with a fluorescence microscope. […]

Assay [4] deals with post-thaw islet-like clusters. The assay is described as follows: Flow cytometry of post-thaw islet-like clusters. To be noted: combination protocol. The protocol:
as §1
EN clusters, transferred to cryogenic vials, were frozen directly after the stepwise cryoprotection treatment in a controlled rate freezer using the following protocol (freezing procedure A): • 1. The sample is cooled-down to −7.5° C. (+/−0.7° C.); • 2. Induction of nucleation by mechanical agitation and inducing a supercool spot at the outer vial wall; • 3. Incubation for 15-minutes at −7.5° C.; • 4. Cool-down of sample to −40° C. at a rate of 0.3° C. per minute; • 5. Immersion of sample in liquid nitrogen; • 6. Transfer to liquid N2 tank for long-term storage.
After low-temperature storage of at least seven days, the EN clusters were thawed rapidly in a 37° C. waterbath and the cryoprotective medium is diluted with thawing medium, consisting of differentiation medium for the EN-stage as described previously, according to the combination protocol, supplemented with 20% KnockOut™ Serum Replacement and 10 μM ROCKi. After resuspension in fresh thawing medium, the EN clusters are cultured under standard culture conditions. The supplements in the thawing medium are removed by medium change after 24 hours, using differentiation medium for the EN-stage, according to the combination protocol, for further differentiation. Afterwards, the culture medium was refreshed regularly. […]
Recovery rates were determined after post-thaw culture of 4-6 days, i.e. differentiation into islet-like clusters, by determination of viable cell count. Clusters, dissociated into single cells, were stained and analysed for different markers with flow cytometry.

For assay [5], the system named is post-thaw islet-like clusters. The assay can be described thus: Single-cell RNA sequencing of post-thaw islet-like clusters. To be noted: second protocol, frozen at EN+1. The protocol:
While applying the second differentiation protocol, clusters were frozen at EN+1 using the described cryoprotective medium of 7.2% DMSO+2.8% EG added within the stepwise cryoprotection treatment and freezing procedure A. After thawing the EN clusters as described, the clusters were differentiated into islet-like clusters according to the second protocol (Control) in comparison to the second protocol with extension of GSI and without T3 addition. Single-cell RNA sequencing was carried out after thawing and differentiation into islet-like clusters, after dissociation of clusters into single cells.

In a further assay the test system is islet-like clusters. The assay can be described thus: Single cell RNA sequencing and histology of islet-like clusters. The protocol:
Beta cell differentiation from iPSC aggregates was carried out using several hiPSC lines with a new protocol derived by combining two published protocols (Nostro et al., Stem Cell Reports (2015), 4(4): 591-604; Rezania et al., Nat Biotechnol (2014), 32(11): 1121-1133), further referred to as “combination protocol”. iPSCs were seeded as single cells in suspension at 1×10^6 cells/mL in mTeSR1 (StemCell Technologies Inc.; 05850) with […] Y-27632 and kept in culture in 100 mL spinner flasks on a stirring platform to form aggregates under low shear conditions (see e.g. Fok and Zandstra, Stem Cells 2005; 23:1333-1342). At day 0 of differentiation, iPSC clusters were treated with Basal medium 1 (BM1) with the addition of 100 ng/mL Activin A, 2 μM CHIR 99021 and 10 μM Y-27632 to induce definitive endoderm. On subsequent days, media change was performed as described below, and occurred daily up to day 14, every other day after that. Definitive endoderm (DE) was induced from day 0 to day 3 and gut tube (GT) was patterned from day 3 to day 6. On day 6, pancreatic progenitors (PP) were induced until day 11. Commitment to the endocrine (EN) lineage was then performed between day 11 and day 14, and day 14 EN clusters were differentiated to islet-like clusters (ILCs) until day 24 (FIG. 1). […]

[6] abbreviates: addition of gamma secretase inhibitor and removal of T3, compared to control.
Where [7] appears, read: GSI in absence of T3 after thawing.

Turning to `C[C@H](NC(=O)Cc1cc(F)cc(F)c1)C(=O)N[C@H]1N=C(c2ccccc2)c2ccccc2N(C)C1=O` [gamma secretase inhibitor, gamma secretase inhibitor XXI (CAS 209986-17-4)], the “content of chromogranin A^pos cells” value with ILC cells [1] (addition of gamma secretase inhibitor (1 μM, day 14-17) and removal of T3 after EN stage, combination protocol) is “above 95%”. Also, the “glucagon^pos cells” value in the assay with ILC cells [1] (setting [6]) is on record as “Significantly higher numbers”. Also, the “NKX6.1^pos/C-peptide^pos beta cell population” value in the assay with ILC cells [1] (addition of gamma secretase inhibitor and removal of T3, FACS) is listed as over 65%. In addition, in the assay on ILC cells [1] (addition of gamma secretase inhibitor in absence of T3), the VMAT1/SLC18A1 expression result is on record as “similarly reduced”. Also, the “pancreatic EC cells (serotonin^pos and C-peptide^neg)” value in the assay on ILC cells [1] (addition of gamma secretase inhibitor in absence of T3, combination protocol, control 30%) is given as under 15%. In the assay with ILC cells [2], the “NKX6.1^pos/C-peptide^pos cells” value is “above 65%” and the “serotonin^pos/C-peptide^neg cells” value is listed as “only a small fraction”. Moreover, the “post-thaw recovery versus control” value in assay [3] is listed as “increases the post-thaw recovery”. In addition, in assay [4] (setting [7]), the “number of Chromogranin^pos cells in post-thaw islet-like clusters versus control” value is given as “increases” and the “number of beta-cells in post-thaw islet-like clusters versus control” value is “increases”. Besides, the “C-peptide^neg/serotonin^pos cell levels in post-thaw islet-like clusters versus control” value in assay [4] (GSI while omitting T3 after thawing) is given as “decreases”. Further, the “population of ductal cells, post-thaw” value in assay [5] (GSI without T3) is recorded as “decreased to low levels”. Besides, in assay [5] (extended GSI in absence of T3), the “populations of ARX^pos cells, post-thaw, versus Ctrl” value is given as “increased”; the “populations of beta-cells, post-thaw, versus Ctrl” value is “increased”; the “somatostatin (SST)^pos cells, post-thaw, versus Ctrl” value is “increased”. Further, the “ductal cells (SOX9^pos/CFTR^pos)” value in the assay on islet-like clusters (addition of gamma secretase inhibitor and removal of T3) is “Only residual ductal cells”. Moreover, in the assay with islet-like clusters (setting [6]), the “somatostatin^pos population” value is given as “increased”.

(Values after patent US20250283046A1, “New Cell Populations and Means and Methods for their Differentiation and Preservation” (EVOTEC INTERNATIONAL GMBH, priority 2022, published 2025).)
